Results: ChEMBL document CHEMBL1121962, “Synthesis of 4-amino-1-beta-D-ribofuranosyl-1H-pyrrolo[2,3-b]pyridine (1-deazatubercidin) as a potential antitumor agent” (J Med Chem, 1982)
Calls of active or inactive are those of the source. The calls are words filed in the database; no cut-off is given here.

What was measured:
Mus musculus [1] = species: Mus musculus; experiment: Effect tested against murine leukemia L1210 cells; Inactive; format: functional, cell-based
Mus musculus [2] = species: Mus musculus; experiment: Effect tested against murine sarcoma S-180 cells; Inactive; format: functional, cell-based

Nc1ccnc2c1ccn2C1O[C@H](CO)[C@@H](O)[C@H]1O (some centres not stated)
Activity (Mus musculus [1]): inactive | Activity (Mus musculus [2]): inactive
